Here are results for 36 compounds from US10076519B2 (CYTOKINETICS, INC., priority 2010, dated 2018).

The structures appear in SMILES notation.

One assay has as its system rabbit skeletal myofibrils (fast skeletal myofibrils). Description: Activation of fast skeletal myofibrils (PUMA assay, PK/LDH-coupled ATPase at pCa25). It counts as biochemical. The conditions noted are these: AC1.4 determined according to the procedure of Example 39; reported as class symbols. The procedure, abridged: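 ATPase activity of Triton-washed rabbit skeletal myofibrils, roughly 90% fast fibres, tracked by NADH loss at 340 nm through a PK/LDH-coupled ADP-regenerating system. Calcium set to 25% of maximal activity (pCa25), in PIPES 12 mM pH 6.8 with 2 mM MgCl2 and 1 mM DTT; AC1.4 reported.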
As for `CC(C)(CNc1ccc(-c2cccnc2)nn1)c1ccccc1Cl` [[2-(2-chlorophenyl)-2-methylpropyl](6-(3-pyridyl)pyridazin-3-yl)amine], the “Mean AC1.4” value was “B (B=1-10 uM)”.
For the compound `CC(C)(CNc1ccc(-c2cccc(C(N)=O)c2)nn1)c1ncccn1` [3-{6-[(2-methyl-2-pyrimidin-2-ylpropyl)amino]pyridazin-3-yl}benzamide], the “Mean AC1.4” value is listed as “D (D=>20 uM)”.
As for `Cn1nc(N)c2cc(-c3ccc(NCC(C)(C)c4ccc(F)cc4)nn3)ccc21` [[6-(3-amino-1-methyl(1H-indazol-5-yl))pyridazin-3-yl][2-(4-fluorophenyl)-2-methylpropyl]amine], the “Mean AC1.4” value is given as “B (B=1-10 uM)”.
Regarding `CC(C)(CNc1ccc(-c2ccc3[nH]c(=O)[nH]c(=O)c3c2)nn1)c1ccc(F)cc1` [6-(6-{[2-(4-fluorophenyl)-2-methylpropyl]amino}pyridazin-3-yl)-1,3-dihydroquinazoline-2,4-dione], the “Mean AC1.4” value is listed as “B (B=1-10 uM)”.
`CC(C)(CNc1ccc(-c2ccc3cn[nH]c3c2)nn1)c1ccc(F)cc1` [(6-(1H-indazol-6-yl)pyridazin-3-yl)[2-(4-fluorophenyl)-2-methylpropyl]amine]: the “Mean AC1.4” value is reported as “A (A=<1 uM)”.
Consider `CC(C)(C)OC(=O)NCCCNC(=O)c1cccc(-c2ccc(NCC(C)(C)c3ccc(F)cc3)nn2)c1` [N-{3-[(tert-butoxy)carbonylamino]propyl}[3-(6-{[2-(4-fluorophenyl)-2-methylpropyl]amino}pyridazin-3-yl)phenyl]carboxamide], for which the “Mean AC1.4” value is listed as “B (B=1-10 uM)”.
Consider `CC(C)(CNc1ccc(-c2ccc3nc[nH]c(=O)c3c2)nn1)c1ccc(F)cc1`, for which the “Mean AC1.4” value is given as “B (B=1-10 uM)”.
Still for that read-out and setting: the entry for `CC(C)CC(NC(=O)c1ccc(NCC(C)(C)c2ccc(F)cc2)nn1)C(N)=O` (stereo not drawn) [N-(1-carbamoyl-3-methylbutyl)(6-{[2-(4-fluorophenyl)-2-methylpropyl]amino}pyridazin-3-yl)carboxamide] is “C (C=10-20 uM)”; for `CC(C)(CNc1ccc(-c2cc(C(N)=O)c3[nH]ncc3c2)nn1)c1ccc(F)cc1` [5-(6-{[2-(4-fluorophenyl)-2-methylpropyl]amino}pyridazin-3-yl)-1H-indazole-7-carboxamide] it is “B (B=1-10 uM)”.
Take `NC(=O)Nc1cccc(-c2ccc(NCC3(c4ncccc4F)CCC3)nn2)c1`: the “Mean AC1.4” value was “A (A=<1 uM)”.
`CC(C)(CNc1nnc(-c2cccc(C(N)=O)c2)cc1C#N)c1ccc(F)cc1` [3-(5-cyano-6-{[2-(4-fluorophenyl)-2-methylpropyl]amino}pyridazin-3-yl)benzamide]: the “Mean AC1.4” value is given as “C (C=10-20 uM)”.
In the case of `CC(C)(CNc1ccc(-c2cccc(C(N)=O)c2)nn1)c1ccccc1Cl` [3-(6-{[2-(2-chlorophenyl)-2-methylpropyl]amino}pyridazin-3-yl)benzamide], the “Mean AC1.4” value is reported as “A (A=<1 uM)”.
Regarding `Cc1nc2cc(-c3ccc(NCC(C)(C)c4ccc(F)cc4)nn3)ccc2o1` [[2-(4-fluorophenyl)-2-methylpropyl][6-(2-methylbenzoxazol-5-yl)pyridazin-3-yl]amine], the “Mean AC1.4” value is on record as “B (B=1-10 uM)”.
With `CC(C)(CNc1ccc(-c2c[nH]c(N)n2)nn1)c1ccc(F)cc1` [[6-(2-aminoimidazol-4-yl)pyridazin-3-yl][2-(4-fluorophenyl)-2-methylpropyl]amine], the “Mean AC1.4” value is on record as “B (B=1-10 uM)”.

The assay is the same for the next values; noted with them: median AC1.4 class, procedure of Example 39.
For the compound `Cc1ncc(-c2ccc(NCC3(c4ncccc4F)CCC3)nn2)cn1` [{[(3-fluoro(2-pyridyl))cyclobutyl]methyl}[6-(2-methylpyrimidin-5-yl)pyridazin-3-yl]amine], the “Mean AC1.4” value is given as “D (D=>20 uM)”.
Still for that read-out and setting: the entry for `NC(=O)C1CCCN(C(=O)c2cnc(-c3ccc(NCC4(c5ncccc5F)CCC4)nn3)s2)C1` (stereo not drawn) [1-({2-[6-({[(3-fluoro-2-pyridyl)cyclobutyl]methyl}ami-no)pyridazin-3-yl]-1,3-thiazol-5-yl}carbonyl)piperidine-3-carboxamide] is “C (C=10-20 uM)”; for `NC(=O)c1cc(-c2ccc(NC3(c4ncccc4F)CCC3)nn2)ccc1O` [5-(6-{[(3-fluoro(2-pyridyl))cyclobutyl]amino}pyr-idazin-3-yl)-2-hydroxybenzamide] it is “B (B=1-10 uM)”; for `C[C@@H](N)C(=O)NCc1cnc(-c2ccc(NCC3(c4ncccc4F)CCC3)nn2)s1` [(2R)-2-amino-N-({2-[6-({[(3-fluoro(2-pyridyl))cyclobutyl]methyl}ami-no)pyridazin-3-yl](1,3-thiazol-5-yl)}methyl)propanamide] it is “A (A=<1 uM)”.
The same measure, in the same setting: then `CC(=O)N1CCN[C@H](C(=O)NCc2cnc(-c3ccc(NCC4(c5ncccc5F)CCC4)nn3)s2)C1` [((2S)-4-acetylpiperazin-2-yl)-N-({2-[6-({[(3-fluoro(2-pyridyl))cyclobutyl]methyl}ami-no)pyridazin-3-yl](1,3-thiazol-5-yl)}methyl)carboxamide], with “A (A=<1 uM)”; and `Fc1cccnc1C1(CNc2ccc(-c3nn[nH]n3)nn2)CCC1` [(6-(2H-1,2,3,4-tetraazol-5-yl)pyridazin-3-yl){[(3-fluoro(2-pyridyl))cyclobutyl]methyl}amine], with “D (D=>20 uM)”.
Consider `CNC(=O)c1cnc(-c2ccc(NCC3(c4ncccc4F)CCC3)nn2)s1` [{2-[6-({[(3-fluoro(2-pyridyl))cyclobutyl]methyl}ami-no)pyridazin-3-yl](1,3-thiazol-5-yl)}-N-methylcarboxamide], for which the “Mean AC1.4” value is reported as “A (A=<1 uM)”.
On to `NC(=O)N[C@H]1C[C@@H](c2ccc(NCC3(c4ncccc4F)CCC3)nn2)C1`, for which the “Mean AC1.4” value is “B (B=1-10 uM)”.
With `CS(=O)(=O)NCc1cnc(-c2ccc(NCC3(c4ncccc4F)CCC3)nn2)s1` [({2-[6-({[(3-fluoro(2-pyridyl))cyclobutyl]methyl}ami-no)pyridazin-3-yl](1,3-thiazol-5-yl)}methyl)(methylsulfonyl)amine], the “Mean AC1.4” value was “B (B=1-10 uM)”.

The assay is the same for the next values; noted with them: median AC1.4 reported as class; procedure of Example 39.
Take `CNC(=O)Cc1csc(NC(=O)c2ccc(NCC3(c4ncccc4F)CCC3)nn2)n1` [2-(2-{[6-({[(3-fluoro(2-pyridyl))cyclobutyl]methyl}ami-no)pyridazin-3-yl]carbonylamino}(1,3-thiazol-4-yl))-N-methylacetamide]: the “Mean AC1.4” value was “A (A=<1 uM)”.
Take `NC(=O)c1ccc(NCC2(c3ncccc3F)CCC2)nn1` [6-({[(3-fluoro-2-pyridyl)cyclobutyl]methyl}ami-no)pyridazine-3-carboxamide]: the “Mean AC1.4” value is on record as “D (D=>20 uM)”.
Still for that read-out and setting: the entry for `O=C(NC1CC(O)C1)c1cccc(-c2ccc(NC[C@]3(c4ncccc4F)C[C@H](F)C3)nn2)c1` (stereo partly drawn) [{3-[6-({[3-fluoro-1-(3-fluoro(2-pyridyl))cyclobutyl]methyl}ami-no)pyridazin-3-yl]phenyl}-N-(3-hydroxycyclobutyl)carboxamide] is “B (B=1-10 uM)”; for `NC(=O)c1cc(-c2ccc(NCC3(c4ncccc4F)CCC3)nn2)c(F)cc1O` [4-fluoro-5-[6-({[(3-fluoro(2-pyridyl))cyclobutyl]methyl}ami-no)pyridazin-3-yl]-2-hydroxybenzamide] it is “A (A=<1 uM)”.
Turning to `O=C(N[C@@H]1CS(=O)(=O)C[C@H]1O)c1cccc(-c2ccc(NC[C@]3(c4ncccc4F)C[C@H](F)C3)nn2)c1` [N-((3S,4S)-4-hydroxy-1,1-dioxothiolan-3-yl){3-[6-({[3-fluoro-1-(3-fluoro(2-pyridyl))cyclobutyl]methyl}ami-no)pyridazin-3-yl]phenyl}carboxamide], the “Mean AC1.4” value is recorded as “B (B=1-10 uM)”.
On to `O=C(NCc1cnc(-c2ccc(NCC3(c4ncccc4F)CCC3)nn2)s1)[C@@H]1CCN1` [((2S)azetidin-2-yl)-N-({2-[6-({[(3-fluoro(2-pyridyl))cyclobutyl]methyl}ami-no)pyridazin-3-yl](1,3-thiazol-5-yl)}methyl)carboxamide], for which the “Mean AC1.4” value is given as “A (A=<1 uM)”.
The same measure, in the same setting: the entry for `CC(=O)NCc1ncc(-c2ccc(NCC3(c4ncccc4F)CCC3)nn2)s1` [N-({5-[6-({[(3-fluoro-2-pyridyl)cyclobutyl]methyl}ami-no)pyridazin-3-yl]-1,3-thiazol-2-yl}methyl)acetamide] is “B (B=1-10 uM)”; for `O=C(NC1CC1)c1cccc(-c2ccc(NC[C@]3(c4ncccc4F)C[C@H](F)C3)nn2)c1` [N-cyclopropyl{3-[6-({[3-fluoro-1-(3-fluoro(2-pyridyl))cyclobutyl]methyl}ami-no)pyridazin-3-yl]phenyl}carboxamide] it is “B (B=1-10 uM)”.
For the compound `CNC(=O)c1ccc(O)c(-c2ccc(NCC3(c4ncccc4F)CCC3)nn2)c1` [{3-[6-({[(3-fluoro(2-pyridyl))cyclobutyl]methyl}amino)pyr-idazin-3-yl]-4-hydroxyphenyl}-N-methylcarboxamide], the “Mean AC1.4” value is listed as “B (B=1-10 uM)”.
On the same count and under the same terms, then `CCNC(=O)c1ccc(F)c(-c2ccc(NC[C@]3(c4ncccc4F)C[C@H](F)C3)nn2)c1` [N-ethyl{4-fluoro-3-[6-({[3-fluoro-1-(3-fluoro(2-pyridyl))cyclobutyl]methyl}ami-no)pyridazin-3-yl]phenyl}carboxamide], with “B (B=1-10 uM)”.
As for `O=C(O)CCc1cnc(-c2ccc(NCC3(c4ncccc4F)CCC3)nn2)s1` [3-{2-[6-({[(3-fluoro-2-pyridyl)cyclobutyl]methyl}ami-no)pyridazin-3-yl]-1,3-thiazol-5-yl}propanoic acid], the “Mean AC1.4” value is “B (B=1-10 uM)”.
Take `CN(C)C(=O)c1cc(-c2ccc(NC[C@]3(c4ncccc4F)C[C@H](F)C3)nn2)ccc1O` [{5-[6-({[3-fluoro-1-(3-fluoro(2-pyridyl))cyclobutyl]methyl}ami-no)pyridazin-3-yl]-2-hydroxyphenyl}-N,N-dimethylcarboxamide]: the “Mean AC1.4” value is reported as “B (B=1-10 uM)”.
Regarding `O=C1NCc2ccc(-c3ccc(NC[C@]4(c5ncccc5F)C[C@H](F)C4)nn3)cc21` [6-[6-({[3-fluoro-1-(3-fluoro(2-pyridyl))cyclobutyl]methyl}ami-no)pyridazin-3-yl]isoindolin-1-one], the “Mean AC1.4” value is recorded as “B (B=1-10 uM)”.
